Results: the OligoGym collection
Where “and” joins values, the source holds several entries; their conditions need not be identical. Equal values may be shown once. After the bases stand the sugars from the 5' end (letter, count) and the backbone: PS all phosphorothioate, else s phosphorothioate and o phosphodiester by linkage. Methylation of C is not given here. k = constrained ethyl (cEt); d = 2'-deoxy (DNA)

These sequences were tested against MALAT1. Details: ASO, A431, 0.005 µM.

Which target mRNA inhibition does the source give for ATAATAGAGCTACTTA (sugars k3 d10 k3, PS) here?
The target mRNA inhibition was 19%.

How did the target mRNA inhibition turn out when ATACAAACTGCTTACA (sugars k3 d10 k3, PS) was run?
Its target mRNA inhibition is -30%.

Which target mRNA inhibition does the source give for ATACCCTTCTGTTAAC (sugars k3 d10 k3, PS) here?
Its target mRNA inhibition is 2%.

With ATAGACCCCTGACTTT (sugars k3 d10 k3, PS) as the sequence, how does the target mRNA inhibition read?
The target mRNA inhibition was 34%.

Which target mRNA inhibition does the source give for ATAGAGCTACTTAGCT (sugars k3 d10 k3, PS) here?
Its target mRNA inhibition is 19%.

ATAGTTCAACCCACCA (sugars k3 d10 k3, PS) was tested. Which target mRNA inhibition did it give?
Its target mRNA inhibition is 21%.

With ATAGTTTACCACCTTT (sugars k3 d10 k3, PS) as the sequence, how does the target mRNA inhibition read?
Its target mRNA inhibition is 39%.

Which target mRNA inhibition does the source give for ATATTGCCGACCTCAC (sugars k3 d10 k3, PS) here?
The target mRNA inhibition was 26%.

How did the target mRNA inhibition turn out when ATATTTGCCCCTCCCC (sugars k3 d10 k3, PS) was run?
Its target mRNA inhibition is 27%.

Which target mRNA inhibition does the source give for ATCAAACACTGGTTCC (sugars k3 d10 k3, PS) here?
Its target mRNA inhibition is 48%.

How did the target mRNA inhibition turn out when ATCAAGTCAAGCTCCT (sugars k3 d10 k3, PS) was run?
Its target mRNA inhibition is 11%.

ATCACAAATACGACTG (sugars k3 d10 k3, PS) was tested. Which target mRNA inhibition did it give?
Its target mRNA inhibition is 34%.

With ATCAGGTGAGGCTGAC (sugars k3 d10 k3, PS) as the sequence, how does the target mRNA inhibition read?
Its target mRNA inhibition is 23%.

ATCCCCCCCAAGATTG (sugars k3 d10 k3, PS) was tested. Which target mRNA inhibition did it give?
Its target mRNA inhibition is 5%.

With ATCCCTAACATGCAAT (sugars k3 d10 k3, PS) as the sequence, how does the target mRNA inhibition read?
The target mRNA inhibition was 23%.

For ATCCTACCACTCCCAA (sugars k3 d10 k3, PS), which target mRNA inhibition is on record?
Its target mRNA inhibition is 34%.

Which target mRNA inhibition does the source give for ATCCTCTACGCACAAC (sugars k3 d10 k3, PS) here?
Its target mRNA inhibition is 42%.

Which target mRNA inhibition does the source give for ATCCTGAATGGCTTCA (sugars k3 d10 k3, PS) here?
Its target mRNA inhibition is 0%.

For ATCTAAAAGCATTGCC (sugars k3 d10 k3, PS), which target mRNA inhibition is on record?
Its target mRNA inhibition is 18%.

How did the target mRNA inhibition turn out when ATCTCAACCTCCGTCA (sugars k3 d10 k3, PS) was run?
Its target mRNA inhibition is 34%.

For ATCTGTTAACAGCTGC (sugars k3 d10 k3, PS), which target mRNA inhibition is on record?
The target mRNA inhibition was 71% and 76%.

How did the target mRNA inhibition turn out when ATCTTAGTAACCTATT (sugars k3 d10 k3, PS) was run?
The target mRNA inhibition was 17%.

With ATGCAATACTGCAGAT (sugars k3 d10 k3, PS) as the sequence, how does the target mRNA inhibition read?
Its target mRNA inhibition is 1%.

For ATGCACTAAAGATCAC (sugars k3 d10 k3, PS), which target mRNA inhibition is on record?
Its target mRNA inhibition is 34%.

How did the target mRNA inhibition turn out when ATGCATTCTAATAGCA (sugars k3 d10 k3, PS) was run?
Its target mRNA inhibition is -1%.

With ATGGACATCTCTTCCA (sugars k3 d10 k3, PS) as the sequence, how does the target mRNA inhibition read?
The target mRNA inhibition was 30%.

For ATGGATCATGCCCACA (sugars k3 d10 k3, PS), which target mRNA inhibition is on record?
The target mRNA inhibition was 12%.

With ATTAAGAGCTGCTATA (sugars k3 d10 k3, PS) as the sequence, how does the target mRNA inhibition read?
Its target mRNA inhibition is -4%.

For ATTACCTAAACCCACC (sugars k3 d10 k3, PS), which target mRNA inhibition is on record?
Its target mRNA inhibition is -10%.

With ATTACTCTAATCACTG (sugars k3 d10 k3, PS) as the sequence, how does the target mRNA inhibition read?
Its target mRNA inhibition is 28%.

Which target mRNA inhibition does the source give for ATTACTCTTGATCTTG (sugars k3 d10 k3, PS) here?
Its target mRNA inhibition is 71% and 56%.

ATTAGTAGTCAAAGCA (sugars k3 d10 k3, PS) was tested. Which target mRNA inhibition did it give?
The target mRNA inhibition was 20%.

With ATTCATGAGTATAAGC (sugars k3 d10 k3, PS) as the sequence, how does the target mRNA inhibition read?
The target mRNA inhibition was 29%.

With ATTCCCCAATGGAGGT (sugars k3 d10 k3, PS) as the sequence, how does the target mRNA inhibition read?
The target mRNA inhibition was 36%.

With ATTCGATCACCTTCCG (sugars k3 d10 k3, PS) as the sequence, how does the target mRNA inhibition read?
The target mRNA inhibition was 19%.

How did the target mRNA inhibition turn out when ATTCTAATAGCAGCGG (sugars k3 d10 k3, PS) was run?
Its target mRNA inhibition is 32%.

ATTGGTATTAATTCGG (sugars k3 d10 k3, PS) was tested. Which target mRNA inhibition did it give?
Its target mRNA inhibition is 70% and 75% and 92%.

ATTTAAGGCCTTCCAA (sugars k3 d10 k3, PS) was tested. Which target mRNA inhibition did it give?
Its target mRNA inhibition is 30%.

Which target mRNA inhibition does the source give for ATTTTAAACGGGTCAT (sugars k3 d10 k3, PS) here?
Its target mRNA inhibition is 7%.

How did the target mRNA inhibition turn out when ATTTTGTCCACTGGTG (sugars k3 d10 k3, PS) was run?
Its target mRNA inhibition is 50%.

With ATTTTTGAAGCATACC (sugars k3 d10 k3, PS) as the sequence, how does the target mRNA inhibition read?
Its target mRNA inhibition is 41% and 57%.

For CAAAGACCTCGACACC (sugars k3 d10 k3, PS), which target mRNA inhibition is on record?
The target mRNA inhibition was 18%.

With CAAAGATATTGTGCTG (sugars k3 d10 k3, PS) as the sequence, how does the target mRNA inhibition read?
The target mRNA inhibition was -10%.

For CAAATCGCCATGGAAA (sugars k3 d10 k3, PS), which target mRNA inhibition is on record?
The target mRNA inhibition was 14%.

Which target mRNA inhibition does the source give for CAAATTAATGCACTGG (sugars k3 d10 k3, PS) here?
Its target mRNA inhibition is 15%.

For CAACAATTTAGAGCTT (sugars k3 d10 k3, PS), which target mRNA inhibition is on record?
Its target mRNA inhibition is 12%.

How did the target mRNA inhibition turn out when CAACAGCACAGCGGTA (sugars k3 d10 k3, PS) was run?
The target mRNA inhibition was -5%.

Which target mRNA inhibition does the source give for CAACATTTGGCCTACT (sugars k3 d10 k3, PS) here?
Its target mRNA inhibition is 17%.

Which target mRNA inhibition does the source give for CAACCCACCAAAGACC (sugars k3 d10 k3, PS) here?
Its target mRNA inhibition is 2%.

Which target mRNA inhibition does the source give for CAACTCGCATCACCGG (sugars k3 d10 k3, PS) here?
The target mRNA inhibition was 9%.

With CAACTGGAAGCTCCTT (sugars k3 d10 k3, PS) as the sequence, how does the target mRNA inhibition read?
The target mRNA inhibition was 23%.

How did the target mRNA inhibition turn out when CAAGACCAAACTGCAG (sugars k3 d10 k3, PS) was run?
The target mRNA inhibition was -28%.

With CAAGGCAAATCGCCAT (sugars k3 d10 k3, PS) as the sequence, how does the target mRNA inhibition read?
Its target mRNA inhibition is 42%.

How did the target mRNA inhibition turn out when CAATCACAAATACGAC (sugars k3 d10 k3, PS) was run?
The target mRNA inhibition was 18%.

CAATCCACTTGATCCC (sugars k3 d10 k3, PS) was tested. Which target mRNA inhibition did it give?
The target mRNA inhibition was 56% and 44%.

CAATCCCAACCGTAAC (sugars k3 d10 k3, PS) was tested. Which target mRNA inhibition did it give?
Its target mRNA inhibition is 9%.

With CAATCCTGAAATCCCC (sugars k3 d10 k3, PS) as the sequence, how does the target mRNA inhibition read?
The target mRNA inhibition was 16%.
